# According to patent US20040185073A1, “Cosmetic compositions containing salts of malonic acid” (Unilever Home & Personal Care USA, Division of Conopco, Inc., priority 2003, published 2004):
# Test system: Porcine Skin
# Assay: Porcine Skin Test (thermo-mechanical analyzer deflection, 20 gram load)
# Description: A feature of the present invention is that malonate salts are those which impart to the composition a positive Flexibility Value of at least 1, preferably at least 1.1 relative to water in the Porcine Skin Test. This test utilizes a thermo-mechanical analyzer with a 20 gram load to a one-cm diameter disc of Porcine Skin from which the immediate deflection is recorded in mm. Water serves as a control. Skin samples are measured before and 24 hours after one, two and three treatments. These treatments consist of 150 μl of each composition being applied to the skin for five minutes, then removed without rinsing. Thereafter, drying is performed at 21° C. and less than 100% relative humidity. Data transformation consists of determining the ratio of the deflection value after three applications of the test composition to the deflection value of the water standard. The ratio is defined as the Flexibility Value.
# A variety of carboxylic acid salts were evaluated to determine their response in a Porcine Skin Test. A Perkin-Elmer Thermo-Mechanical Analyzer, Model TMS-1, was operated with a 20 gram load placed to a center of a one-cm diameter disc of Porcine Skin. Deflection of the skin in mm was immediately recorded. The sample size was six pieces of skin per treatment. Water was used as a control. […] Each was measured dry before and 24 hours after one, two and three treatments. […]
substance,measurement,setting,value
Dimethylethanolammonium Malonate [Malonate Salt],Flexibility Value,"test material solution, 150 μl applied 5 minutes, ratio of deflection after three applications to deflection of water standard (water = 1.00)",1.36
same,effect on skin flexibility (in words),"test material solutions, versus water",significantly more flexible
